Measurements as given in publication PMC6921279 (Frontiers in Endocrinology, 2019).
One block for each molecule: values may come before it.

Experiments:
[1] = test system: rat cardiomyocytes; parameters: method as in PMID 12970163; details: CRF2R activation by Ucn2 and Ucn3; cited from earlier work
[2] = test system: PYK2; test: CRF-induced PYK2 phosphorylation at Tyr402 in COS-7 cells expressing HA-CRF1R; assay type: cell-based; details: PP2 (discussion)
Procedure: (§1) COS-7 cells (from the American Type Culture Collection) were cultured at 37°C in a humidified atmosphere of 95% air, 5% CO2, in DMEM supplemented with 10% FBS, 100 μg/ml streptomycin, and 100 units/ml penicillin (COS-7 growth medium). Transient transfections were performed using LipofectAMINE (Life Technologies: Gaithersburg, MD) as described previously ([27]). Cells were seeded at 8 × 10^5 cells/10-cm dish in COS-7 medium and cultured for 3 days before transfection. COS-7 cells were transfected in 5 ml/dish OptiMEM containing 10 μg/ml LipofectAMINE with empty vector, pcDNA3 encoding the HA-CRF1R or the HA-CRF1R-Δ386 mutant. […]
(§2) The protocols for measuring total and phosphorylated ERK1/2, c-Src, PYK2, Akt, and EGFR have been previously published ([28], [29]). […] The labeled bands were quantified using the Quantity One 4.6.3 software program (Bio-Rad).
(§3) Figure 6 CRF mediates EGFR phosphorylation at Tyr^845 and activation of PYK2. […] Total cell lysates were separated by SDS-PAGE and analyzed by immunoblotting with anti-p-EGFR Tyr^845 (A,B) or anti-p-PYK2 Tyr^402 (E), as described in Materials and Methods. EGFR and ERK1/2 phosphorylation were quantitated by densitometry, and mean values were plotted from three to five independent experiments. […] Src and EGFR were quantitated by densitometry, and mean values were plotted from three independent experiments. […]

[3] = test system: CRF1R-mediated ERK1/2 phosphorylation; test: Modulation of CRF-stimulated ERK1/2 phosphorylation in COS-7 cells expressing HA-CRF1R; assay type: cell-based; details: 100 nM CRF, 5 min
Procedure: (§4) Plasmid pRK5 encoding the carboxyl terminus of βARK that contains its βγ-binding domain (ct-βARK) was kindly provided by Dr. W. Koch (Center for Translational Medicine, Temple University, Philadelphia, PA), which is a scavenger for G protein βγ subunits ([25]). […] Plasmid pUSEamp encoding dominant-negative Akt-K179M (dn-Akt) was from Upstate Biotechnology (Lake Placid, NY).
(§5) COS-7 cells (from the American Type Culture Collection) were cultured at 37°C in a humidified atmosphere of 95% air, 5% CO2, in DMEM supplemented with 10% FBS, 100 μg/ml streptomycin, and 100 units/ml penicillin (COS-7 growth medium). Transient transfections were performed using LipofectAMINE (Life Technologies: Gaithersburg, MD) as described previously ([27]). Cells were seeded at 8 × 10^5 cells/10-cm dish in COS-7 medium and cultured for 3 days before transfection. COS-7 cells were transfected in 5 ml/dish OptiMEM containing 10 μg/ml LipofectAMINE with empty vector, pcDNA3 encoding the HA-CRF1R or the HA-CRF1R-Δ386 mutant. […] After replacing the transfection medium with fresh growth medium, transfected COS-7 cells were cultured for 1 day. Subsequently, cells were re-seeded in 6-well plates and cultured for an additional day prior to the experiment.
(§6) The protocols for measuring total and phosphorylated ERK1/2, c-Src, PYK2, Akt, and EGFR have been previously published ([28], [29]). After cells were cultured to 60–70% confluence, they were serum-deprived for 24 h. On the day of the experiment, cells were treated with the indicated ligands and inhibitors. […] After treatment, cells were placed on ice, the media was aspirated, and the cells were washed twice with ice-cold PBS and lysed in 100 μl of Laemmli sample buffer 1X. The lysates were briefly sonicated, heated at 95°C for 5 min, and centrifuged for 5 min at 14,000 rpm. Resulting supernatants were loaded in separate lanes of a 10% SDS-PAGE gels and electrophoresed. Next, Western transfer on to PDVF membranes was completed. The Western blots were then probed with specific antibodies targeting phosphorylated and non-phosphorylated forms of ERK1/2, c-Src, PYK2, Akt, and EGFR for primary immunodetection. After blots were probed with horseradish peroxidase-conjugated secondary antibody, protein bands were visualized with enhanced chemiluminescence ECL reagent (Amersham Pharmacia Biotech, Piscataway, NJ or Pierce Biotechnology, Rockford, IL) and scanned using the GS-800 Calibrated Imaging Densitometer (Bio-Rad). The labeled bands were quantified using the Quantity One 4.6.3 software program (Bio-Rad).
Total cell lysates were separated by SDS-PAGE and analyzed by immunoblotting with anti-p-ERK1/2 Thr^202/Tyr^204, as described in Materials and Methods. ERK1/2 phosphorylation was quantitated by densitometry, and mean values were plotted from five independent experiments.
Total cell lysates were separated by SDS-PAGE and analyzed by immunoblotting with anti-p-ERK1/2 Thr^202/Tyr^204 (A–D) or anti-p-EGFR Tyr^1068 (E), as described in Materials and Methods. ERK1/2 and EGFR phosphorylation were quantitated by densitometry, and mean values were plotted from three to five independent experiments.
Total cell lysates were separated by SDS-PAGE and analyzed by immunoblotting with anti-p-ERK1/2 Thr^202/Tyr^204, as described in Materials and Methods. ERK1/2 phosphorylation was quantitated by densitometry, and mean values were plotted from three to five independent experiments.

[4] = test system: Src; test: CRF-induced Src phosphorylation at Tyr416 in COS-7 cells expressing HA-CRF1R; assay type: cell-based; details: 10 μM PP2, 30 min pretreatment; 100 nM CRF, 5 min
Procedure: COS-7 cells (from the American Type Culture Collection) were cultured at 37°C in a humidified atmosphere of 95% air, 5% CO2, in DMEM supplemented with 10% FBS, 100 μg/ml streptomycin, and 100 units/ml penicillin (COS-7 growth medium). Transient transfections were performed using LipofectAMINE (Life Technologies: Gaithersburg, MD) as described previously ([27]). Cells were seeded at 8 × 10^5 cells/10-cm dish in COS-7 medium and cultured for 3 days before transfection. COS-7 cells were transfected in 5 ml/dish OptiMEM containing 10 μg/ml LipofectAMINE with empty vector, pcDNA3 encoding the HA-CRF1R or the HA-CRF1R-Δ386 mutant. […] After replacing the transfection medium with fresh growth medium, transfected COS-7 cells were cultured for 1 day. […]
as §2
Figure 5 Role of Src tyrosine kinase in CRF-stimulated ERK1/2 phosphorylation. […] Total cell lysates were separated by SDS-PAGE and analyzed by immunoblotting with anti-p-Src Tyr^416 (A,B) or anti-p-ERK1/2 Thr^202/Tyr^204 (C–E), as described in Materials and Methods. Src, PYK2, and ERK1/2 phosphorylation were quantitated by densitometry, and mean values were plotted from three to five independent experiments. […]

[5] = test system: EGFR Tyr845; test: CRF-induced EGFR phosphorylation at Tyr845 in COS-7 cells expressing HA-CRF1R; assay type: cell-based; details: 10 μM PP2, 30 min pretreatment; 100 nM CRF, 5 min
Procedure: as §1, §2, §3

[6] = test system: CRF1R-mediated Akt phosphorylation; test: CRF-induced Akt phosphorylation at Ser473 in COS-7 cells expressing HA-CRF1R; assay type: cell-based, human; details: PP2 10 μM, 30 min pretreatment; 100 nM CRF, 5 min
Procedure: as §4, §5
as §6, with “After blots were probed with horseradish peroxidase-conjugated secondary antibody, protein bands were visualized with enhanced chemiluminescence ECL reagent (Amersham Pharmacia Biotech, Piscataway, NJ or Pierce Biotechnology, Rockford, IL) and scanned using the GS-800 Calibrated Imaging Densitometer (Bio-Rad).” left out
Figure 7 CRF mediates Akt activation. […] Total cell lysates were separated by SDS-PAGE and analyzed by immunoblotting with anti-p-Akt Ser^473, as described in Materials and Methods. Akt phosphorylation was quantitated by densitometry, and mean values were plotted from three to five independent experiments. […]

[7] = test system: β2-adrenergic receptor; parameters: method as in PMID 15489914, PMID 11278940; details: A431 cells; cited from earlier work
Text: Moreover, there is evidence that Tyr phosphorylation of GPCRs plays a role in mediating GPCR-Src interactions ([43]). […] This residue lies within a canonical Src SH2 binding domain, and it is proposed that Src directly binds the Tyr-phosphorylated β2-AR.

[8] = test system: MEK1/2-mediated phosphorylation of ERK1/2; parameters: method as in PMID 16484629, PMID 10098484, PMID 14670995, PMID 11117536, PMID 12970163; details: CRF1R and CRF2R signaling, various cell lines; cited from earlier work

SMILES: CCCC[C@@H](C)/C=C(C)/C=C(\C)C(=O)NC1=C[C@@](O)(/C=C/C=C/C=C/C(=O)NC2=C(O)CCC2=O)[C@@H]2O[C@@H]2C1=O [manumycin A]
effect on ERK1/2 phosphorylation [1]: abolish ERK1/2 phosphorylation

IC50 ([3]; PP2 0–20 μM, 30 min pretreatment, read-out: IC50, inhibition of CRF-stimulated ERK1/2 phosphorylation): 2000 nM
SMILES: CC(C)(C)n1nc(-c2ccc(Cl)cc2)c2c(N)ncnc21 [PP2]
effect on CRF-stimulated activation of Src, PYK2, the EGFR, and ERK1/2 [2]: markedly reduced or abolished the CRF-stimulated activation of Src, PYK2, the EGFR, and ERK1/2 | effect on CRF-stimulated ERK1/2 phosphorylation ([3]; 10 μM PP2, 30 min pretreatment): abolished CRF-stimulated ERK1/2 phosphorylation | effect on CRF-induced Src phosphorylation [4]: CRF-induced Src phosphorylation was prevented | effect on CRF-induced EGFR Tyr845 phosphorylation [5]: blocked | effect on CRF-induced Akt activation [6]: completely inhibited

SMILES: CC(C)NCC(O)c1ccc(O)c(O)c1 (stereo not drawn) [isoproterenol]
phosphorylation of β2-AR [7]: results in phosphorylation of the receptor on Tyr^305

SMILES: COc1cccc(-c2cc(=O)c3ccccc3o2)c1N [PD98059]
effect on ERK1/2 activation [8]: inhibiting ERK1/2 activation
